In patent US20260242391A1 (priority 2023, published 2026):

How the values were obtained:
HL-60 = HL-60 differentiation potency; type: cell-based; details: Homo sapiens
in vitro = details: human

EC50 (HL-60) [nM]	IC50 (in vitro) [µM]	Structure (SMILES)
78.6	0.0877	C[C@H]1[C@@H](OC(=O)CCC(O)c2ccc(Cl)cc2)O[C@@H]2O[C@@]3(C)CC[C@H]4[C@H](C)CC[C@@H]1[C@@]24OO3 (stereo partly drawn) [Compound 93, (3R,5aS,6R,8aS, 9R,10R,12R, 12aR)-3,6,9-trimethyldeca-hydro-12H-3,12-epoxy[1,2] dioxepino[4,3-i] isochromen-10-yl 4-(4-chlorophenyl)-4-hydroxybutanoate]
13400	> 20	C[C@H]1[C@H](OCc2ccc(C(=O)O)o2)O[C@@H]2O[C@@]3(C)CC[C@H]4[C@H](C)CC[C@@H]1[C@@]24OO3 [Compound 61, 5-((((3R,5aS,6R, 8aS,9R,10R,12R, 12aR)-3,6,9-trimethyldeca-hydro-12H-3,12-epoxy[1,2]dioxepino[4,3-i]isochromen-10-yl)oxy)methyl) furan-2-carboxylic acid]
343	> 20	C[C@H]1[C@@H](OCc2ccc(C(=O)O)c(Cl)c2)O[C@@H]2O[C@@]3(C)CC[C@H]4[C@H](C)CC[C@@H]1[C@@]24OO3 [Compound 33, 2-chloro-4-((((3R,5aS,6R, 8aS,9R,10S,12R, 12aR)-3,6,9-trimethyldeca-hydro-12H-3,12-epoxy[1,2]dioxepino[4,3-i]isochromen-10-yl)oxy)methyl) benzoic acid]
9120	8.34	C[C@H]1[C@H](NCc2ccc(S(C)(=O)=O)cc2)O[C@@H]2O[C@@]3(C)CC[C@H]4[C@H](C)CC[C@@H]1[C@@]24OO3 [Compound 58, (3R,5aS,6R,8aS, 9R,10R,12R, 12aR)-3,6,9-trimethyl-N-(4-(methylsulfonyl)benzyl) decahydro-12H-3,12-epoxy[1,2] dioxepino[4,3-i] isochromen-10-amine]
86.8	> 20	C[C@H]1[C@H](OCc2c(F)cc(C(=O)O)cc2F)O[C@@H]2O[C@@]3(C)CC[C@H]4[C@H](C)CC[C@@H]1[C@@]24OO3 [Compound 137, 3,5-difluoro-4-((((3R,5aS,6R,8aS, 9R,10R,12R, 12aR)-3,6,9-trimethyldeca-hydro-12H-3,12-epoxy[1,2]dioxepino[4,3-i]isochromen-10-yl)oxy)methyl) benzoic acid]
> 20000	> 20	C[C@H]1[C@@H](OCC(=O)N2C[C@@H](O)C[C@H]2C(=O)O)O[C@@H]2O[C@@]3(C)CC[C@H]4[C@H](C)CC[C@@H]1[C@@]24OO3 [Compound 160, (2S,4S)-4-hydroxy-1-(2-(((3R,5aS,6R,8aS, 9R,10S,12R, 12aR)-3,6,9-trimethyldeca-hydro-12H-3,12-epoxy[1,2]dioxepino[4,3-i]isochromen-10-yl)oxy)acetyl) pyrrolidine-2-carboxylic acid]
40.2	0.16	C[C@H]1[C@@H](Oc2ccc(C(C)(C)C(=O)O)cc2Cl)O[C@@H]2O[C@@]3(C)CC[C@H]4[C@H](C)CC[C@@H]1[C@@]24OO3 [Compound 180, 2-(3-chloro-4-(((3R,5aS,6R,8aS, 9R,10S,12R, 12aR)-3,6,9-trimethyldeca-hydro-12H-3,12-epoxy[1,2]dioxepino[4,3-i]isochromen-10-yl)oxy)phenyl)-2-methylpropanoic acid]
175	> 20	C[C@H]1[C@@H](OCc2ccc(C(=O)O)c(C(F)(F)F)c2)O[C@@H]2O[C@@]3(C)CC[C@H]4[C@H](C)CC[C@@H]1[C@@]24OO3 [Compound 155, 2-(trifluoromethyl)-4-((((3R,5aS,6R, 8aS,9R,10S,12R, 12aR)-3,6,9-trimethyldeca-hydro-12H-3,12-epoxy[1,2]dioxepino[4,3-i]isochromen-10-yl)oxy)methyl) benzoic acid]
1010	> 20	Cc1cc(C(=O)O)ccc1CO[C@@H]1O[C@@H]2O[C@@]3(C)CC[C@H]4[C@H](C)CC[C@@H]([C@H]1C)[C@@]24OO3 [Compound 44, 3-methyl-4-((((3R,5aS,6R,8aS, 9R,10R,12R, 12aR)-3,6,9-trimethyldeca-hydro-12H-3,12-epoxy[1,2]dioxepino[4,3-i]isochromen-10-yl)oxy)methyl) benzoic acid]
2730	> 20	C[C@H]1[C@H](OCCS(C)(=O)=O)O[C@@H]2O[C@@]3(C)CC[C@H]4[C@H](C)CC[C@@H]1[C@@]24OO3 [Compound 53, (3R,5aS,6R,8aS, 9R,10R,12R, 12aR)-3,6,9-trimethyl-10-(2-(methylsulfonyl)ethoxy)deca-hydro-12H-3,12-epoxy[1,2] dioxepino[4,3-i] isochromene]
616	13.1	C[C@H]1[C@@H](OCc2ccc(-c3nn[nH]n3)cc2)O[C@@H]2O[C@@]3(C)CC[C@H]4[C@H](C)CC[C@@H]1[C@@]24OO3 [Compound 38, 5-(4-((((3R,5aS,6R,8aS, 9R,10S,12R, 12aR)-3,6,9-trimethyldeca-hydro-12H-3,12-epoxy[1,2]dioxepino[4,3-i]isochromen-10-yl)oxy)methyl)phenyl)-2H-tetrazole]
42.3	> 20	COc1cc(CC(=O)O)ccc1O[C@H]1O[C@@H]2O[C@@]3(C)CC[C@H]4[C@H](C)CC[C@@H]([C@H]1C)[C@@]24OO3 [Compound 3, 2-(3-methoxy-4-(((3R,5aS,6R, 8aS,9R,10S,12R, 12aR)-3,6,9-trimethyldeca-hydro-12H-3,12-epoxy[1,2]dioxepino[4,3-i]isochromen-10-yl)oxy)phenyl) acetic acid]
79.5	0.3	C[C@H]1[C@@H](OCC#Cc2ccc(C(=O)O)cc2F)O[C@@H]2O[C@@]3(C)CC[C@H]4[C@H](C)CC[C@@H]1[C@@]24OO3 [Compound 165, 3-fluoro-4-(3-(((3R,5aS,6R,8aS, 9R,10S,12R, 12aR)-3,6,9-trimethyldeca-hydro-12H-3,12-epoxy[1,2]dioxepino[4,3-i]isochromen-10-yl)oxy)prop-1-yn-1-yl) benzoic acid]
44.5	0.66	C[C@H]1[C@@H](OCc2c(Cl)cc(C(=O)O)cc2Cl)O[C@@H]2O[C@@]3(C)CC[C@H]4[C@H](C)CC[C@@H]1[C@@]24OO3 [Compound 177, 3,5-dichloro-4-((((3R,5aS,6R,8aS, 9R,10S,12R, 12aR)-3,6,9-trimethyldeca-hydro-12H-3,12-epoxy[1,2]dioxepino[4,3-i]isochromen-10-yl)oxy)methyl) benzoic acid]
735	> 20	Cc1cc(CO[C@H]2O[C@@H]3O[C@@]4(C)CC[C@H]5[C@H](C)CC[C@@H]([C@H]2C)[C@@]35OO4)ccc1C(=O)O [Compound 41, 2-methyl-4-((((3R,5aS,6R, 8aS,9R,10S,12R, 12aR)-3,6,9-trimethyldeca-hydro-12H-3,12-epoxy[1,2]dioxepino[4,3-i]isochromen-10-yl)oxy)methyl) benzoic acid]
206	0.4	C[C@H]1[C@H](OCc2ccc(B(O)O)cc2)O[C@@H]2O[C@@]3(C)CC[C@H]4[C@H](C)CC[C@@H]1[C@@]24OO3 [Compound 176, (4-((((3R,5aS,6R,8aS, 9R,10R,12R, 12aR)-3,6,9-trimethyldeca-hydro-12H-3,12-epoxy[1,2]dioxepino[4,3-i]isochromen-10-yl)oxy)methyl)phenyl)boronic acid]
225	> 20	C[C@H]1[C@@H](Oc2ccc(CC(=O)O)c(F)c2)O[C@@H]2O[C@@]3(C)CC[C@H]4[C@H](C)CC[C@@H]1[C@@]24OO3 [Compound 26, 2-(2-fluoro-4-(((3R,5aS,6R, 8aS,9R,10S,12R, 12aR)-3,6,9-trimethyldeca-hydro-12H-3,12-epoxy[1,2]dioxepino[4,3-i]isochromen-10-yl)oxy)phenyl) acetic acid]
300	3.52	C[C@H]1[C@@H](OCc2ccc(C(N)=O)cc2)O[C@@H]2O[C@@]3(C)CC[C@H]4[C@H](C)CC[C@@H]1[C@@]24OO3 [Compound 30, 4-((((3R,5aS, 6R,8aS,9R,10S, 12R,12aR)-3,6,9-trimethyldeca-hydro-12H-3,12-epoxy[1,2]dioxepino[4,3-i]isochromen-10-yl)oxy)methyl) benzamide]
140	> 20	C[C@H]1[C@@H](OCC2CC3C(C2)C3C(=O)O)O[C@@H]2O[C@@]3(C)CC[C@H]4[C@H](C)CC[C@@H]1[C@@]24OO3 (stereo partly drawn) [Compound 181, 3-((((3R,5aS,6R,8aS, 9R,10S,12R, 12aR)-3,6,9-trimethyldeca-hydro-12H-3,12-epoxy[1,2]dioxepino[4,3-i]isochromen-10-yl)oxy)methyl) bicyclo[3.1.0] hexane-6-carboxylic acid]
58.1	1.5	C[C@H]1[C@@H](Oc2ccc(C3CC(C(=O)O)C3)cc2)O[C@@H]2O[C@@]3(C)CC[C@H]4[C@H](C)CC[C@@H]1[C@@]24OO3 (stereo partly drawn) [Compound 175, 3-(4-(((3R,5aS,6R,8aS, 9R,10S,12R, 12aR)-3,6,9-trimethyldeca-hydro-12H-3,12-epoxy[1,2]dioxepino[4,3-i]isochromen-10-yl)oxy)phenyl) cyclobutane-1-carboxylic acid]
5750	> 20	C[C@H]1[C@H](OCC(=O)N2C[C@H]3[C@@H]([C@H]2C(=O)O)C3(C)C)O[C@@H]2O[C@@]3(C)CC[C@H]4[C@H](C)CC[C@@H]1[C@@]24OO3 [Compound 162, (1R,2S,5S)-6,6-dimethyl-3-(2-(((3R,5aS,6R,8aS, 9R,10R,12R, 12aR)-3,6,9-trimethyldeca-hydro-12H-3,12-epoxy[1,2]dioxepino[4,3-i]isochromen-10-yl)oxy)acetyl)-3-azabicyclo[3.1.0] hexane-2-carboxylic acid]
> 20000	> 20	C[C@H]1[C@@H](CCN2CCC(C(=O)O)CC2)O[C@@H]2O[C@@]3(C)CC[C@H]4[C@H](C)CC[C@@H]1[C@@]24OO3 [Compound 66, 1-(2-((3R,5aS,6R, 8aS,9R,10R,12R, 12aR)-3,6,9-trimethyldeca-hydro-12H-3,12-epoxy[1,2]dioxepino[4,3-i]isochromen-10-yl)ethyl) piperidine-4-carboxylic acid]
48.4	0.2	C[C@H]1[C@H](OCC2CCC(F)(F)CC2)O[C@@H]2O[C@@]3(C)CC[C@H]4[C@H](C)CC[C@@H]1[C@@]24OO3 [Compound 105, (3R,5aS,6R,8aS, 9R,10R,12R, 12aR)-10-((4,4-difluorocyclo-hexyl)methoxy)-3,6,9-trimethyldeca-hydro-12H-3,12-epoxy[1,2] dioxepino[4,3-i] isochromene]
